# Values quoted from earlier work, collected in patent US11167002B2, “Pharmaceutical composition for the treatment of malignant neoplasms including sarcoma, cancers of liver, lung, bladder, blood and cervical, treatment of infectious diseases and type 2 diabetes” (priority 2019, dated 2021).
# Assays:
# Candida albicans = conditions: allicin in pure form
# [1] = allicin in pure form
# [2] = tested on: Entamoeba histolytica and Giardia lamblia; conditions: allicin in pure form
# [3] = tested on: Gram-negative and Gram-positive bacteria, including multidrug-resistant enterotoxigenic strains of Escherichia coli; conditions: allicin in pure form
smiles,measurement,setting,value
C=CCS[S+]([O-])CC=C (stereo not shown) [Allicin],antifungal activity,Candida albicans,antifungal activity
same,antiviral activity,[1],antiviral activity
same,antiparasitic activity,[2],antiparasitic activity
same,antibacterial activity,[3],antibacterial activity
